In ChEMBL document CHEMBL1909046, “DrugMatrix in vitro pharmacology data”:

Tested on: not listed separately
Assay: DRUGMATRIX: beta-Lactamase enzyme inhibition (substrate: Nitrocefin)
Set-up: species or system Bacillus cereus
Conditions: Not Active = under 50% inhibition at 10 µM

Row | Compound | IC50 | Ki
1 | CCCCC1C(=O)N(c2ccccc2)N(c2ccccc2)C1=O [PHENYLBUTAZONE] | Not Active | Not Active
2 | Cc1cccc(Nc2cc(Cl)nc(SCC(=O)O)n2)c1C [PIRINIXIC ACID] | Not Active | Not Active
3 | CC[C@H](C)C(=O)O[C@H]1C[C@H](O)C=C2C=C[C@H](C)[C@H](CC[C@@H](O)C[C@@H](O)CC(=O)O)[C@H]21 [PRAVASTATIN] | Not Active | Not Active
4 | CC(C)(Sc1cc(C(C)(C)C)c(O)c(C(C)(C)C)c1)Sc1cc(C(C)(C)C)c(O)c(C(C)(C)C)c1 [PROBUCOL] | Not Active | Not Active
5 | COBALT(II) ACETYLACETONATE | Not Active | Not Active
6 | INSULIN HUMAN | Not Active | Not Active
7 | POLYVINYL ALCOHOL | Not Active | Not Active

Molecular target: Vasopressin V1a receptor (Homo sapiens, UniProt P37288); note: in other assays of this panel Not Active means under 50% inhibition at 10 µM
Sequence (P37288 whole entry): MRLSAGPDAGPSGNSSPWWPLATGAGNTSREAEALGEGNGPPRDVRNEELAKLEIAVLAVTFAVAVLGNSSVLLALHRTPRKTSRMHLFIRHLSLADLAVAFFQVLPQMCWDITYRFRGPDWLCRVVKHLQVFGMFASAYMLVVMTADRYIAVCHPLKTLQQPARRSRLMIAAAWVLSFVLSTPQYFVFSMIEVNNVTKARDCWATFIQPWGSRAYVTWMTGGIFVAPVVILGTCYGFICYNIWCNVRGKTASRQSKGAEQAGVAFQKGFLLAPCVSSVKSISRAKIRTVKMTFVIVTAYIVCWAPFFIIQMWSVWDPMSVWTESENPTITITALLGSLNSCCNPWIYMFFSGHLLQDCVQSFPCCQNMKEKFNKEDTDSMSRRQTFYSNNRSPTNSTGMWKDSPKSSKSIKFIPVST
Type: cell membranes, Membrane
Conditions: hek293

Row | Compound | IC50 | Ki
8 | CCCCC1C(=O)N(c2ccccc2)N(c2ccccc2)C1=O [PHENYLBUTAZONE] | Not Active | 
9 | Cc1cccc(Nc2cc(Cl)nc(SCC(=O)O)n2)c1C [PIRINIXIC ACID] | Not Active | 
10 | CC[C@H](C)C(=O)O[C@H]1C[C@H](O)C=C2C=C[C@H](C)[C@H](CC[C@@H](O)C[C@@H](O)CC(=O)O)[C@H]21 [PRAVASTATIN] | Not Active | 
11 | CC(C)(Sc1cc(C(C)(C)C)c(O)c(C(C)(C)C)c1)Sc1cc(C(C)(C)C)c(O)c(C(C)(C)C)c1 [PROBUCOL] | Not Active | 
12 | COBALT(II) ACETYLACETONATE | Not Active | Not Active
13 | INSULIN HUMAN | Not Active | Not Active
14 | POLYVINYL ALCOHOL | Not Active | Not Active

Molecular target: T1, Cholecystokinin receptor type A (Homo sapiens, UniProt P32238); note: in other assays of this panel Not Active means under 50% inhibition at 10 µM
T1 sequence (P32238 whole entry): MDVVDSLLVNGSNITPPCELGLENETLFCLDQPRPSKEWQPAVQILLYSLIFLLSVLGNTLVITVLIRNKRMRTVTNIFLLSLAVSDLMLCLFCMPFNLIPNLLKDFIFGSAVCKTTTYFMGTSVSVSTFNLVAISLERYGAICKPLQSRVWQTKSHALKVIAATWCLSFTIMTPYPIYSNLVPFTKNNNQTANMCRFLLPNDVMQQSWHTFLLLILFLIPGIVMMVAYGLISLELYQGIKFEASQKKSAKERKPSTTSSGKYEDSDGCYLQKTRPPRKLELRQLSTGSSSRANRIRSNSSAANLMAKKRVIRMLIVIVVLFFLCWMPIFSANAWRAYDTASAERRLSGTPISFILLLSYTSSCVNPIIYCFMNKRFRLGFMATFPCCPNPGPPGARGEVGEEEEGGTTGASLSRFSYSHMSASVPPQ
Type: cell membranes, Membrane
Conditions: 1321-n1

Row | Compound | IC50 | Ki
15 | CCCCC1C(=O)N(c2ccccc2)N(c2ccccc2)C1=O [PHENYLBUTAZONE] | Not Active | 
16 | Cc1cccc(Nc2cc(Cl)nc(SCC(=O)O)n2)c1C [PIRINIXIC ACID] | Not Active | 
17 | CC[C@H](C)C(=O)O[C@H]1C[C@H](O)C=C2C=C[C@H](C)[C@H](CC[C@@H](O)C[C@@H](O)CC(=O)O)[C@H]21 [PRAVASTATIN] | Not Active | 
18 | CC(C)(Sc1cc(C(C)(C)C)c(O)c(C(C)(C)C)c1)Sc1cc(C(C)(C)C)c(O)c(C(C)(C)C)c1 [PROBUCOL] | Not Active | 
19 | COBALT(II) ACETYLACETONATE | Not Active | Not Active
20 | INSULIN HUMAN | Not Active | Not Active
21 | POLYVINYL ALCOHOL | Not Active | Not Active

Molecular target: Melanocortin receptor 3 (Homo sapiens, UniProt P41968); note: in other assays of this panel Not Active means under 50% inhibition at 10 µM
Sequence (P41968 whole entry): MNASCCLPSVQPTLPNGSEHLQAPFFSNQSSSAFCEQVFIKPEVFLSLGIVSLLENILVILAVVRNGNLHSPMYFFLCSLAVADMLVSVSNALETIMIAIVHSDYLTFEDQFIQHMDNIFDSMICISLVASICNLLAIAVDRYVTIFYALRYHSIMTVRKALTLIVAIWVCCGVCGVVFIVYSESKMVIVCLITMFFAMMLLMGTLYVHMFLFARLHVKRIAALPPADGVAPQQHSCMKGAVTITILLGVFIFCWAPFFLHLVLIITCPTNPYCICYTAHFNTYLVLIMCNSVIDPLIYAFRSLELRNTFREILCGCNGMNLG
Type: cell membranes, Membrane
Conditions: hek293

Row | Compound | IC50 | Ki
22 | CCCCC1C(=O)N(c2ccccc2)N(c2ccccc2)C1=O [PHENYLBUTAZONE] | Not Active | 
23 | Cc1cccc(Nc2cc(Cl)nc(SCC(=O)O)n2)c1C [PIRINIXIC ACID] | Not Active | 
24 | CC[C@H](C)C(=O)O[C@H]1C[C@H](O)C=C2C=C[C@H](C)[C@H](CC[C@@H](O)C[C@@H](O)CC(=O)O)[C@H]21 [PRAVASTATIN] | Not Active | 
25 | CC(C)(Sc1cc(C(C)(C)C)c(O)c(C(C)(C)C)c1)Sc1cc(C(C)(C)C)c(O)c(C(C)(C)C)c1 [PROBUCOL] | Not Active | 
26 | COBALT(II) ACETYLACETONATE | Not Active | Not Active
27 | INSULIN HUMAN | Not Active | Not Active
28 | POLYVINYL ALCOHOL | Not Active | Not Active

Tested on: not listed separately
Assay: DRUGMATRIX: Phosphodiesterase PDE4 enzyme inhibition (substrate: [3H]cAMP + cAMP)
Conditions: u-937; Not Active = under 50% inhibition at 10 µM

Row | Compound | IC50 | Ki
29 | CCCCC1C(=O)N(c2ccccc2)N(c2ccccc2)C1=O [PHENYLBUTAZONE] | Not Active | Not Active
30 | Cc1cccc(Nc2cc(Cl)nc(SCC(=O)O)n2)c1C [PIRINIXIC ACID] | Not Active | Not Active
31 | CC[C@H](C)C(=O)O[C@H]1C[C@H](O)C=C2C=C[C@H](C)[C@H](CC[C@@H](O)C[C@@H](O)CC(=O)O)[C@H]21 [PRAVASTATIN] | Not Active | Not Active
32 | CC(C)(Sc1cc(C(C)(C)C)c(O)c(C(C)(C)C)c1)Sc1cc(C(C)(C)C)c(O)c(C(C)(C)C)c1 [PROBUCOL] | Not Active | Not Active
33 | COBALT(II) ACETYLACETONATE | Not Active | Not Active
34 | INSULIN HUMAN | Not Active | Not Active
35 | POLYVINYL ALCOHOL | Not Active | Not Active

Molecular target: T2, Caspase-1 (Homo sapiens, UniProt P29466);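 note: Caspase-1 enzyme inhibition assay with a peptide substrate; in other assays of this panel Not Active means under 50% inhibition at 10 µM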
T2 sequence (P29466 whole entry): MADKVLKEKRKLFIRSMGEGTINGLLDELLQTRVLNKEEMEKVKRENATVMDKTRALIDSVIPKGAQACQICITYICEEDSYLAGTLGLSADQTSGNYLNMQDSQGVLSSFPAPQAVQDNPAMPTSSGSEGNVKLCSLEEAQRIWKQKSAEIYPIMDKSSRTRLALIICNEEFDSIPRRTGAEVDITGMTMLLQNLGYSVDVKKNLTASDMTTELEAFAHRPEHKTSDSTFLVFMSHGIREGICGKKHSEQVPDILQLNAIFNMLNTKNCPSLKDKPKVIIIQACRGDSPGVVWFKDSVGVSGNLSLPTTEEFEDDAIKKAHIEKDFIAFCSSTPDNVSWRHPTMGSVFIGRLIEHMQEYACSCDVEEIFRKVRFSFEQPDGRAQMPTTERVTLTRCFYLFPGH
Set-up: species or system Escherichia coli
Conditions: not given

Row | Compound | IC50 | Ki
36 | CCCCC1C(=O)N(c2ccccc2)N(c2ccccc2)C1=O [PHENYLBUTAZONE] | Not Active | 
37 | Cc1cccc(Nc2cc(Cl)nc(SCC(=O)O)n2)c1C [PIRINIXIC ACID] | Not Active | 
38 | CC[C@H](C)C(=O)O[C@H]1C[C@H](O)C=C2C=C[C@H](C)[C@H](CC[C@@H](O)C[C@@H](O)CC(=O)O)[C@H]21 [PRAVASTATIN] | Not Active | 
39 | CC(C)(Sc1cc(C(C)(C)C)c(O)c(C(C)(C)C)c1)Sc1cc(C(C)(C)C)c(O)c(C(C)(C)C)c1 [PROBUCOL] | Not Active | 
40 | COBALT(II) ACETYLACETONATE | Not Active | Not Active
41 | INSULIN HUMAN | Not Active | Not Active
42 | POLYVINYL ALCOHOL | Not Active | Not Active

Molecular target: T3, Adenosine receptor A1 (Homo sapiens, UniProt P30542)
T3 sequence (P30542 whole entry): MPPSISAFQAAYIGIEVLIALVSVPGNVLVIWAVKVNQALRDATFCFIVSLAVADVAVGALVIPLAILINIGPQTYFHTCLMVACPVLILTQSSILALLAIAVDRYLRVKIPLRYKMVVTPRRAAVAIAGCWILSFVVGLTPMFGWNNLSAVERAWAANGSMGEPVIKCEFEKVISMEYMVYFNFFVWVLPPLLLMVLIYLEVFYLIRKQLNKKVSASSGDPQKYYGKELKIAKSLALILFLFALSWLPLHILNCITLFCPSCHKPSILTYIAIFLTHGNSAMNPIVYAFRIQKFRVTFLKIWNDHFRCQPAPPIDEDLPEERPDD
Type: cell membranes, CHO, Membrane
Conditions: cho

Row | Compound | IC50 | Ki
43 | CCCCC1C(=O)N(c2ccccc2)N(c2ccccc2)C1=O [PHENYLBUTAZONE] | Not Active | 
44 | Cc1cccc(Nc2cc(Cl)nc(SCC(=O)O)n2)c1C [PIRINIXIC ACID] | Not Active | 
45 | CC[C@H](C)C(=O)O[C@H]1C[C@H](O)C=C2C=C[C@H](C)[C@H](CC[C@@H](O)C[C@@H](O)CC(=O)O)[C@H]21 [PRAVASTATIN] | Not Active | 
46 | CC(C)(Sc1cc(C(C)(C)C)c(O)c(C(C)(C)C)c1)Sc1cc(C(C)(C)C)c(O)c(C(C)(C)C)c1 [PROBUCOL] | Not Active | 
47 | COBALT(II) ACETYLACETONATE | Not Active | Not Active
48 | INSULIN HUMAN | Not Active | Not Active
49 | POLYVINYL ALCOHOL | Not Active | Not Active

Molecular target: T4, Glucocorticoid receptor (Homo sapiens, UniProt P04150); note: in other assays of this panel Not Active means under 50% inhibition at 10 µM
T4 sequence (P04150 whole entry): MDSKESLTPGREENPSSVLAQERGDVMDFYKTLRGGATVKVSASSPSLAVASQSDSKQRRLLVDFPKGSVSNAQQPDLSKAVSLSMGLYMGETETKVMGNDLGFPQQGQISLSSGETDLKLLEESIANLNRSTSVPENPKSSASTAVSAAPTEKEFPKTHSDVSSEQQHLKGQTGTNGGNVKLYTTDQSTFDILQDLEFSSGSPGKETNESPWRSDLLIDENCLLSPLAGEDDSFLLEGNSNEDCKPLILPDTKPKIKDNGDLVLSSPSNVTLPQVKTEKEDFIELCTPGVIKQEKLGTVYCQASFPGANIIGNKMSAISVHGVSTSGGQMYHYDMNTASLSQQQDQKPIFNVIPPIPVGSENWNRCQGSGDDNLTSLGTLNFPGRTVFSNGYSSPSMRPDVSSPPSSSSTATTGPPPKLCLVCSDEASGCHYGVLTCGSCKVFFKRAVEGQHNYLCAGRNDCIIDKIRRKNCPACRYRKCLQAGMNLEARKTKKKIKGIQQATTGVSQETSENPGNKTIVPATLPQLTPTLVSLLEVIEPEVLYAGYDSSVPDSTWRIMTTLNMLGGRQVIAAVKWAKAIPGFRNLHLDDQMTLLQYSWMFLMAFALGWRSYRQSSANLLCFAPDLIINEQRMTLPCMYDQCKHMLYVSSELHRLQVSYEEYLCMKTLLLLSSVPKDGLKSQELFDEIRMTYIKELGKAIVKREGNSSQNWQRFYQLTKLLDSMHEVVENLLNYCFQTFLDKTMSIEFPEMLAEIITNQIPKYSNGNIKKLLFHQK
Conditions: hela s3

Row | Compound | IC50 | Ki
50 | CCCCC1C(=O)N(c2ccccc2)N(c2ccccc2)C1=O [PHENYLBUTAZONE] | Not Active | 
51 | Cc1cccc(Nc2cc(Cl)nc(SCC(=O)O)n2)c1C [PIRINIXIC ACID] | Not Active | 
52 | CC[C@H](C)C(=O)O[C@H]1C[C@H](O)C=C2C=C[C@H](C)[C@H](CC[C@@H](O)C[C@@H](O)CC(=O)O)[C@H]21 [PRAVASTATIN] | Not Active | 
53 | CC(C)(Sc1cc(C(C)(C)C)c(O)c(C(C)(C)C)c1)Sc1cc(C(C)(C)C)c(O)c(C(C)(C)C)c1 [PROBUCOL] | Not Active | 
54 | COBALT(II) ACETYLACETONATE | Not Active | Not Active
55 | INSULIN HUMAN | Not Active | Not Active
56 | POLYVINYL ALCOHOL | Not Active | Not Active
